# Source: ChEMBL document CHEMBL4028834, “Stereoselective synthesis of enantiopure N-substituted pyrrolidin-2,5-dione derivatives by 1,3-dipolar cycloaddition and assessment of their in vitro antioxidant and antibacterial activities” (Bioorg Med Chem Lett, 2017)
# Active and inactive are the calls of the source. The calls are words filed in the database; no cut-off is given here.
# Columns and labels:
# [1] = Antioxidant activity assessed as ABTS radical scavenging activity at 2.5 mg/ml incubated for 2 hrs in dark by spectrophotometric analysis (reference value: 1 to 9%); type: functional
# [2] = Antioxidant activity assessed as ABTS radical scavenging activity at 0.5 mg/ml incubated for 2 hrs in dark by spectrophotometric analysis (reference value: 1 to 9 %); type: functional
# [3] = Antioxidant activity assessed as DPPH free radical scavenging activity at 3 mg/ml incubated for 20 mins in dark (reference value: 1 to 9%); type: functional
# [4] = Antioxidant activity assessed as ABTS radical scavenging activity at 2 mg/ml incubated for 2 hrs in dark by spectrophotometric analysis (reference value: 1 to 9%); type: functional
# [5] = Antioxidant activity assessed as reduction in beta-carotene/linoleic acid bleaching activity at 0.5 mg/ml after 2 hrs by spectrophotometric method (reference value: 1 to 8 %); type: functional; design: scale not given: the % may be the effect or the level left
# [6] = Antioxidant activity assessed as DPPH free radical scavenging activity at 0.5 mg/ml incubated for 20 mins in dark (reference value: 1 to 9 %); type: functional
# [7] = Antioxidant activity assessed as reduction in beta-carotene/linoleic acid bleaching activity at 2.5 mg/ml after 2 hrs by spectrophotometric method (reference value: 1 to 8%); type: functional; design: scale not given: the % may be the effect or the level left
# [8] = Antioxidant activity assessed as DPPH free radical scavenging activity at 1 mg/ml incubated for 20 mins in dark (reference value: 1 to 9%); type: functional
# [9] = Antioxidant activity assessed as reduction in beta-carotene/linoleic acid bleaching activity at 3 mg/ml after 2 hrs by spectrophotometric method (reference value: 1 to 8%); type: functional; design: scale not given: the % may be the effect or the level left
# [10] = Antioxidant activity assessed as DPPH free radical scavenging activity incubated for 20 mins in dark; type: functional
# [11] = Antioxidant activity assessed as DPPH free radical scavenging activity at 2 mg/ml incubated for 20 mins in dark (reference value: 1 to 9%); type: functional
# [12] = Antioxidant activity assessed as ABTS radical scavenging activity incubated for 2 hrs in dark by spectrophotometric analysis; type: functional
# [13] = Antioxidant activity assessed as DPPH free radical scavenging activity at 2.5 mg/ml incubated for 20 mins in dark (reference value: 1 to 9%); type: functional
# [14] = Antioxidant activity assessed as reduction in beta-carotene/linoleic acid bleaching activity at 2 mg/ml after 2 hrs by spectrophotometric method (reference value: 1 to 8%); type: functional; design: scale not given: the % may be the effect or the level left
# [15] = Antioxidant activity assessed as reduction in beta-carotene/linoleic acid bleaching activity after 2 hrs by spectrophotometric method; type: functional
# [16] = Antioxidant activity assessed as ABTS radical scavenging activity at 3 mg/ml incubated for 2 hrs in dark by spectrophotometric analysis (reference value: 1 to 9%); type: functional
# [17] = Antioxidant activity assessed as ABTS radical scavenging activity at 1 mg/ml incubated for 2 hrs in dark by spectrophotometric analysis (reference value: 1 to 9%); type: functional
# [18] = Antioxidant activity assessed as reduction in beta-carotene/linoleic acid bleaching activity at 1 mg/ml after 2 hrs by spectrophotometric method (reference value: 1 to 8%); type: functional; design: scale not given: the % may be the effect or the level left
# Listeria monocytogenes [19] = assay: Antibacterial activity against Listeria monocytogenes assessed as diameter of inhibition zone at 125 mg/ml by agar well diffusion method; type: functional; conditions: read-out: DIZ
# Bacillus subtilis [20] = assay: Antibacterial activity against Bacillus subtilis JN934392 assessed as diameter of inhibition zone at 125 mg/ml by agar well diffusion method; type: functional; conditions: read-out: DIZ
# Salmonella enteritidis [21] = assay: Bactericidal activity against Salmonella enterica serotype Enteritidis ATCC 43972 after 48 hrs by MTT dye based microdilution method; type: functional, Salmonella enterica subsp. enterica serovar Enteritidis; conditions: ATCC 43972, 48 h
# Staphylococcus aureus [22] = assay: Antibacterial activity against Staphylococcus aureus ATCC 6538 after 24 hrs by MTT dye based microdilution method; type: functional; conditions: ATCC 6538, 24 h
# Bacillus cereus [23] = assay: Bactericidal activity against Bacillus cereus JN934390 after 48 hrs by MTT dye based microdilution method; type: functional; conditions: JN934390, 48 h
# Bacillus subtilis [24] = assay: Antibacterial activity against Bacillus subtilis JN934392 after 24 hrs by MTT dye based microdilution method; type: functional; conditions: JN934392, 24 h
# Micrococcus luteus [25] = assay: Antibacterial activity against Micrococcus luteus assessed as diameter of inhibition zone at 125 mg/ml by agar well diffusion method; type: functional; conditions: read-out: DIZ
# Staphylococcus aureus [26] = assay: Antibacterial activity against Staphylococcus aureus ATCC 6538 assessed as diameter of inhibition zone at 125 mg/ml by agar well diffusion method; type: functional; conditions: read-out: DIZ
# Salmonella enteritidis [27] = assay: Antibacterial activity against Salmonella enterica serotype Enteritidis ATCC 43972 assessed as diameter of inhibition zone at 125 mg/ml by agar well diffusion method; type: functional, Salmonella enterica subsp. enterica serovar Enteritidis; conditions: read-out: DIZ
# Salmonella enteritidis [28] = assay: Antibacterial activity against Salmonella enterica serotype Enteritidis ATCC 43972 after 24 hrs by MTT dye based microdilution method; type: functional, Salmonella enterica subsp. enterica serovar Enteritidis; conditions: ATCC 43972, 24 h
# Bacillus cereus [29] = assay: Antibacterial activity against Bacillus cereus JN934390 assessed as diameter of inhibition zone at 125 mg/ml by agar well diffusion method; type: functional; conditions: read-out: DIZ
# Micrococcus luteus [30] = assay: Antibacterial activity against Micrococcus luteus after 24 hrs by MTT dye based microdilution method; type: functional
# Klebsiella pneumoniae [31] = assay: Antibacterial activity against Klebsiella pneumoniae after 24 hrs by MTT dye based microdilution method; type: functional
# Klebsiella pneumoniae [32] = assay: Antibacterial activity against Klebsiella pneumoniae assessed as diameter of inhibition zone at 125 mg/ml by agar well diffusion method; type: functional; conditions: read-out: DIZ
# Bacillus cereus [33] = assay: Antibacterial activity against Bacillus cereus JN934390 after 24 hrs by MTT dye based microdilution method; type: functional; conditions: JN934390, 24 h
# Escherichia coli = assay: Antibacterial activity against Escherichia coli ATCC 25922 assessed as diameter of inhibition zone at 125 mg/ml by agar well diffusion method; type: functional
# Bacillus subtilis [34] = assay: Bactericidal activity against Bacillus subtilis JN934392 after 48 hrs by MTT dye based microdilution method; type: functional; conditions: JN934392, 48 h
# Staphylococcus aureus [35] = assay: Bactericidal activity against Staphylococcus aureus ATCC 6538 after 48 hrs by MTT dye based microdilution method; type: functional; conditions: ATCC 6538, 48 h
# Listeria monocytogenes [36] = assay: Antibacterial activity against Listeria monocytogenes after 24 hrs by MTT dye based microdilution method; type: functional
Structure (SMILES),Activity [1],Activity [2],Activity [3],Activity [4],Activity [5],Activity [6],Activity [7],Activity [8],Activity [9],Activity [10],IC50 [10],Activity [11],IC50 [12],Activity [13],Activity [14],IC50 [15],Activity [16],Activity [17],Activity [18],other results
Cc1cccc(N2C(=O)[C@H]3[C@H](ON4[C@@H]3C(=O)N(C)[C@@]43C[C@H](C)CC[C@H]3C(C)C)C2=O)c1,47.7%,16.1%,73.8%,35.3%,25%,26.8%,57.6%,38.7%,65.8%,Dose-dependent effect,1880 µg/mL,49.9%,2700 µg/mL,57.5%,43.6%,1930 µg/mL,52.4%,25.8%,39%,–
CC(C)[C@@H]1CC[C@@H](C)C[C@@]12N(C)C(=O)[C@@H]1[C@H]3C(=O)N(C)C(=O)[C@H]3ON12,70.3%,39.2%,64%,59.9%,36.5%,18.2%,57.2%,43.1%,67.5%,Dose-dependent effect,1650 µg/mL,53.4%,1400 µg/mL,55.8%,49.7%,2160 µg/mL,75.3%,41.5%,47.7%,–
CC(C)[C@@H]1CC[C@@H](C)C[C@@]12N(C)C(=O)[C@@H]1[C@H]3C(=O)N(c4ccc(Cl)cc4)C(=O)[C@H]3ON12,60.1%,29.7%,47.2 to 63.9%,49.4%,47.5%,18.1%,61.3%,31.7%,73.2%,Dose-dependent effect,2150 µg/mL,48.2%,2000 µg/mL,53.1%,56.4%,710 µg/mL,74%,39.9%,53.7%,–
Cc1c(C)c2c(c(C)c1O)CCC(C)(C(=O)O)O2 (centres undefined) [TROLOX],90.8%,82.1%,–,89.2%,–,–,–,–,–,–,–,–,300 µg/mL,–,–,–,91.8%,85.5%,–,–
Cc1cc(C(C)(C)C)c(O)c(C(C)(C)C)c1 [BUTYLATED HYDROXYTOLUENE],–,–,85.8%,–,39.6%,33.8%,75.1%,69.2%,79.2%,–,720 µg/mL,84.8%,–,85.2%,65.9%,930 µg/mL,–,–,52.3%,–
CC(C)[C@@H]1CC[C@@H](C)C[C@@]12N(C)C(=O)[C@@H]1[C@H]3C(=O)N(c4ccccc4)C(=O)[C@H]3ON12,58.6%,14.7%,80.7%,41%,28.7%,21.6%,53.1%,54.9%,58.9%,Dose-dependent effect,900 µg/mL,74.2%,2250 µg/mL,76.2%,48.2%,2310 µg/mL,73.5%,29.7%,35.4%,–
CC(C)[C@@H]1CC[C@@H](C)C[C@@]12N(C)C(=O)[C@@H]1[C@H]3C(=O)N(c4ccc5ccccc5c4)C(=O)[C@H]3ON12,47.9%,25.4%,50.9%,43.6%,24.5%,13.8%,45.1%,27.6%,57.4%,Dose-dependent effect,2920 µg/mL,35%,2520 µg/mL,39.5%,36.5%,2680 µg/mL,60.1%,33.2%,29.6%,–
COc1ccc(N2C(=O)[C@H]3[C@H](ON4[C@@H]3C(=O)N(C)[C@@]43C[C@H](C)CC[C@H]3C(C)C)C2=O)cc1,71.5%,48.9%,68.2%,68.9%,44.5%,32.9%,59.3%,48.1%,67.7%,Dose-dependent effect,1120 µg/mL,61.7%,480 µg/mL,65.3%,55.7%,990 µg/mL,75.1%,61%,50%,zone of inhibition at 125000 µg/mL (Listeria monocytogenes [19]): 11 mm; zone of inhibition at 125000 µg/mL (Bacillus subtilis [20]): 11.3 mm; MBC (Salmonella enteritidis [21]): 50000 µg/mL; MIC (Staphylococcus aureus [22]): 6250 µg/mL; MBC (Bacillus cereus [23]): 50000 µg/mL; MIC (Bacillus subtilis [24]): 6250 µg/mL; zone of inhibition at 125000 µg/mL (Micrococcus luteus [25]): 10 mm; zone of inhibition at 125000 µg/mL (Staphylococcus aureus [26]): 9.66 mm; zone of inhibition at 125000 µg/mL (Salmonella enteritidis [27]): 15 mm; MIC (Salmonella enteritidis [28]): 3120 µg/mL; zone of inhibition at 125000 µg/mL (Bacillus cereus [29]): 12.7 mm; MIC (Micrococcus luteus [30]): 12500 µg/mL; MIC (Klebsiella pneumoniae [31]): 12500 µg/mL; zone of inhibition at 125000 µg/mL (Klebsiella pneumoniae [32]): 9 mm; MIC (Bacillus cereus [33]): 6250 µg/mL; diameter of the inhibition zone (DIZ) (Escherichia coli): inactive; MBC (Bacillus subtilis [34]): 50000 µg/mL; MBC (Staphylococcus aureus [35]): 50000 µg/mL; MIC (Listeria monocytogenes [36]): 12500 µg/mL
CC(C)[C@@H]1CC[C@@H](C)C[C@@]12N(C)C(=O)[C@@H]1[C@H]3C(=O)NC(=O)[C@H]3ON12,70%,23.5%,80.3%,57.2%,25.9%,21.6%,38%,39.3%,47.2%,Dose-dependent effect,1550 µg/mL,58.7%,1500 µg/mL,67.2%,37.1%,–,72%,42.6%,35.6%,–
